From patent US20040024024A1, “Aromatic sulfone hydroxamates and their use as protease inhibitors” (priority 2001, published 2004)
Each block holds one compound with its values, some of them ahead of it.

What was measured:
Human recombinant MMP-2 = target: T1, Human recombinant MMP-2 (Homo sapiens, UniProt P08253); assay: In vitro MMP inhibition, IC50 determination (fluorogenic substrate I); type: biochemical
T1 construct: made in house; host or cells: MMP-2-transfected p2AHT2 cells
T1 sequence (P08253 110-660): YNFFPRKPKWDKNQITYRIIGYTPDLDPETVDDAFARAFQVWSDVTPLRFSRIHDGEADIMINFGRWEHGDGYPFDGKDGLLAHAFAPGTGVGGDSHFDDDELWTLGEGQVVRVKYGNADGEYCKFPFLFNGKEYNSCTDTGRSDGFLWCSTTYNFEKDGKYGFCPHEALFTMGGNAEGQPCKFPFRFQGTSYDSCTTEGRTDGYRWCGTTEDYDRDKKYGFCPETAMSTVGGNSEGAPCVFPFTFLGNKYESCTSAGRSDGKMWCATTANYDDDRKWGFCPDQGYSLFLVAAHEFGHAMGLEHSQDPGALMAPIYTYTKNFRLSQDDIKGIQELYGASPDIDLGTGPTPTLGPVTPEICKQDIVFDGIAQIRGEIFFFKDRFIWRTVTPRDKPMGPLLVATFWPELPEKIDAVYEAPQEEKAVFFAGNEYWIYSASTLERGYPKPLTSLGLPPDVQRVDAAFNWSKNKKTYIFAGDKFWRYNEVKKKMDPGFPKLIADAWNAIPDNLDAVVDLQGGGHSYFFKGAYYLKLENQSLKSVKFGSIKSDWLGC
Protocol: (§1) Several hydroxamates and salts thereof were analyzed in in vitro assays to determine their ability to inhibit the MMP cleavage of peptide substrates. Inhibition (Ki) and IC50 constants were calculated from the assayed hydroxamate-MMP interactions.
(§2) Human recombinant MMP-1, MMP-2, MMP-9, MMP-13, and MMP-14 were used in this assay. All enzymes were prepared in Assignee's laboratories following usual laboratory procedures. Protocols for the preparation and use of these enzymes are available in the scientific literature. See, e.g., Enzyme Nomenclature (Academic Press, San Diego, Calif., 1992) (and the citations therein). See also, Frije et al., J. Biol. Chem., 26(24), 16766-73 (1994).
The MMP-2 proenzyme was purified by gelatin Sepharose chromatography from MMP-2-transfected p2AHT2 cells provided by Dr. Gregory Goldberg of Washington University (St. Louis, Mo.).
(§3) All MMPs were activated using 4-aminophenylmercuric acetate (“APMA”, Sigma Chemical, St. Louis, Mo.) or trypsin. MMP-9 also was activated using human recombinant MMP-3 (purified in Assignee's laboratory following standard cloning and purification techniques).
(§4) Two fluorogenic, methoxycoumarin-containing polypeptide substrates were used in the MMP inhibition assays:
(§5) MCA-ProLeuGlyLeuDpaAlaArgNH2 (I)
(§6) Here, “Dpa” is 3-(2,4-dinitrophenyl)-L-2,3-diaminopropionyl group, and “MCA” is 7-methoxycoumarin-4-yl acetyl. Substrate (I) was purchased from Baychem (Redwood City, Calif.), and substrate II was prepared Assignee's laboratory. Substrate I was used in the IC50 determination assays, while substrate II was used in the Ki determination assays. In the absence of MMP inhibitory activity, either substrate is cleaved at the Gly-Leu peptide bond. This cleavage separates the highly fluorogenic peptide from the 2,4-dinitrophenyl quencher, thus resulting in increase of fluorescent intensity.
(§7) The stock solutions of the assayed hydroxamates (or salts thereof) were prepared in 1% dimethyl sulfoxide (DMSO). These stock solutions were diluted in Buffer A (100 mM Tris-HCl, 100 mM NaCl, 10 mM CaCl2, 0.05% polyoxyethylene 23 lauryl ether, pH 7.5) to obtain solutions with different hydroxamate concentrations, i.e., assay solutions with different concentrations of the assayed MMP inhibitory compound. The experiment controls contained the same amount of Buffer A/DMSO as the assayed sample, but contained no hydroxamate (or salt thereof).
(§8) The assays from which the IC50 determinations were made were performed as follows. The MMPs were activated with either trypsin or APMA (4-aminophenylmercuric acetate, Sigma Chemical, St. Louis, Mo.). The assayed hydroxamate samples were, incubated in Microfluorrm White Plates (Dynatech, Chantilly, VA) and analyzed on a Perkin Elmer L550 plate reader (Norwalk, Conn.). The excitation wavelength was 328 nm, and the emission wavelength—415 nm. All samples (assayed hydroxamates and controls) were incubated in separate plates at room temperature in the presence of 4 μM of MMP substrate (I). As stated in the previous paragraph, samples containing varying concentrations of the same assayed hydroxamate were prepared. Inhibition was measured as a reduction in fluorescent intensity as a function of MMP inhibitor concentration.

Human recombinant MMP-13 = target: T2, Human recombinant MMP-13 (Homo sapiens, UniProt P45452); assay: as above; type: biochemical
T2 construct: made in house; host or cells: baculovirus / insect cells
Protocol: as §1, §2
The expressed proenzyme was first purified over a heparin agarose column, and then over a chelating zinc chloride column. The proenzyme was then activated by APMA for use in the assay. Further details on baculovirus expression systems may be found in, for example, Luckow et al., J. Virol., 67, 4566-79 (1993). See also, O'Reilly et al, Baculovirus Expression Vectors: A Laboratory Manual (W. H. Freeman and Co., New York, N.Y., 1992). See also, King et al., The Baculovirus Expression System: A Laboratory Guide (Chapman & Hall, London, England, 1992).
as §3, §4, §5, §6, §7, §8

[1] = value outside parentheses (Ki in parenthesis)

IC50 (Human recombinant MMP-2; value outside parenthesis): 0.61 µM | IC50 (Human recombinant MMP-13; value outside parenthesis): 0.0135 µM
SMILES: CC(C)c1ccc(N2CCN(CCCOc3ccc(S(=O)(=O)C4(C(=O)NO)CCOCC4)cc3)C2=O)cc1 [Example 186]

IC50 (Human recombinant MMP-2; value outside parenthesis): 1.37 µM | IC50 (Human recombinant MMP-13; value outside parenthesis): 0.0244 µM
SMILES: O=C(NO)C1(S(=O)(=O)c2ccc(OCCCc3cccc(-c4cc(F)cc(F)c4)c3)cc2)CCOCC1 [Example 159]

IC50 (Human recombinant MMP-2; value outside parentheses): 0.0854 µM | IC50 (Human recombinant MMP-13; value outside parentheses): 0.004 µM
SMILES: COc1cc(CCCOc2ccc(S(=O)(=O)C3(C(=O)NO)CCOCC3)cc2)cc(OC)c1 [Example 585]

IC50 (Human recombinant MMP-2; value outside parentheses): 0.14 µM | IC50 (Human recombinant MMP-13; value outside parentheses): 0.0038 µM
SMILES: O=C(NO)C1(S(=O)(=O)c2ccc(OCCc3cccc(N4CCCCC4)c3)cc2)CCOCC1 [Example 594]

IC50 (Human recombinant MMP-2; [1]): 0.258 µM | IC50 (Human recombinant MMP-13; [1]): 0.01 µM
SMILES: O=C(NCCCOc1ccc(S(=O)(=O)C2(C(=O)NO)CCOCC2)cc1)c1cc2cccc(O)c2cc1O [Example 379]

IC50 (Human recombinant MMP-2; value outside parenthesis): 1.95 µM | IC50 (Human recombinant MMP-13; value outside parenthesis): 0.0512 µM
SMILES: O=C(NO)C1(S(=O)(=O)c2ccc(OCCCc3nc(-c4cc(C(F)(F)F)cc(C(F)(F)F)c4)no3)cc2)CCOCC1 [Example 216]

IC50 (Human recombinant MMP-2; [1]): 0.271 µM | IC50 (Human recombinant MMP-13; [1]): 0.0143 µM
SMILES: COc1ccc(/C(C)=C/CCCOc2ccc(S(=O)(=O)C3(C(=O)NO)CCOCC3)cc2)c(OC)c1 [Example 345]

IC50 (Human recombinant MMP-2; value outside parenthesis): 0.422 µM | IC50 (Human recombinant MMP-13; value outside parenthesis): 0.026 µM
SMILES: COCCN1CCC(C(=O)NO)(S(=O)(=O)c2ccc(OCCCn3cc(-c4cccc(OC)c4)cn3)cc2)CC1 [Example 235]

IC50 (Human recombinant MMP-2; value outside parentheses): 0.488 µM | IC50 (Human recombinant MMP-13; value outside parentheses): 0.0041 µM
SMILES: O=C(NCCOc1ccc(S(=O)(=O)C2(C(=O)NO)CCOCC2)cc1)c1ccc(-c2cccc(C(F)(F)F)c2)o1 [Example 610]

IC50 (Human recombinant MMP-2; [1]): 0.0013 µM | IC50 (Human recombinant MMP-13; [1]): 0.002 µM
SMILES: C=CCCCOc1ccc(S(=O)(=O)C2(C(=O)NO)CCOCC2)cc1 [Example 481]

IC50 (Human recombinant MMP-2; [1]): 0.0103 µM | IC50 (Human recombinant MMP-13; [1]): 0.0018 µM
SMILES: COc1ccc(C(C)(O)CCCCOc2ccc(S(=O)(=O)C3(C(=O)NO)CCOCC3)cc2)cc1 (stereo not drawn) [Example 347]

IC50 (Human recombinant MMP-2; value outside parenthesis): 0.0159 µM | IC50 (Human recombinant MMP-13; value outside parenthesis): 0.0094 µM
SMILES: O=C(NO)C1(S(=O)(=O)c2ccc(OCCCS(=O)(=O)N3CCC(Oc4ccc(C(F)(F)F)cc4)CC3)cc2)CCOCC1 [Example 279]

IC50 (Human recombinant MMP-2; [1]): 0.615 µM | IC50 (Human recombinant MMP-13; [1]): 0.0973 µM
SMILES: COc1ccc(C(=O)[C@H](O)CCOc2ccc(S(=O)(=O)C3(C(=O)NO)CCOCC3)cc2)cc1 [Example 318]

IC50 (Human recombinant MMP-2; value outside parentheses): 0.822 µM | IC50 (Human recombinant MMP-13; value outside parentheses): 0.0275 µM
SMILES: O=C(Cc1ccc(-c2ccc(Cl)cc2)s1)NCCOc1ccc(S(=O)(=O)C2(C(=O)NO)CCOCC2)cc1 [Example 618]

IC50 (Human recombinant MMP-2; [1]): 2.7 µM | IC50 (Human recombinant MMP-13; [1]): 0.195 µM
SMILES: COc1ccc(SCC(C)(C)COc2ccc(S(=O)(=O)C3(C(=O)NO)CCOCC3)cc2)cc1 [Example 430]

IC50 (Human recombinant MMP-2; [1]): 5.86 µM | IC50 (Human recombinant MMP-13; [1]): 6.11 µM
SMILES: O=C(NO)C1(S(=O)(=O)c2ccc(OCCCN(c3nc4ccccc4s3)c3nc4ccccc4s3)cc2)CCOCC1 [Example 320]

IC50 (Human recombinant MMP-2; [1]): > 10 µM | IC50 (Human recombinant MMP-13; [1]): 3.31 µM
SMILES: O=C(C1CCCCC1)N1CC[C@@H](Oc2ccc(S(=O)(=O)C3(C(=O)NO)CCOCC3)cc2)C1 [Example 425]

IC50 (Human recombinant MMP-2; value outside parentheses): 0.0373 µM | IC50 (Human recombinant MMP-13; value outside parentheses): 0.0047 µM
SMILES: CC(C)(C)c1cccc(NC(=O)CCCOc2ccc(S(=O)(=O)C3(C(=O)NO)CCOCC3)cc2)c1 [Example 572]

IC50 (Human recombinant MMP-13; [1]): 0.029 µM
SMILES: CS(=O)(=O)c1ccccc1S(=O)(=O)N1CC(Oc2ccc(S(=O)(=O)C3(C(=O)NO)CCOCC3)cc2)C1 [Example 483]

IC50 (Human recombinant MMP-2; [1]): > 10 µM | IC50 (Human recombinant MMP-13; [1]): 5.15 µM
SMILES: COc1ccc(C(=O)N2CC[C@@H](Oc3ccc(S(=O)(=O)C4(C(=O)NO)CCOCC4)cc3)C2)cc1OC [Example 426]
